Common to all, as to assay: HDAC enzyme inhibitory activity, FRET method
Holding throughout (format): biochemical

For one assay, the target named is HDAC1 (Homo sapiens, UniProt Q13547). Conditions: read-out: IC50 HDAC1.
Another assay deals with HDAC2 (Homo sapiens, UniProt Q92769). Particulars: read-out: IC50 HDAC2.
The target of a further assay is HDAC3 (Homo sapiens, UniProt O15379). Particulars: read-out: IC50 HDAC3.

Where two headings read alike, the source gives them in different places.

HDAC2, sequence (Q92769 whole entry, species assumed): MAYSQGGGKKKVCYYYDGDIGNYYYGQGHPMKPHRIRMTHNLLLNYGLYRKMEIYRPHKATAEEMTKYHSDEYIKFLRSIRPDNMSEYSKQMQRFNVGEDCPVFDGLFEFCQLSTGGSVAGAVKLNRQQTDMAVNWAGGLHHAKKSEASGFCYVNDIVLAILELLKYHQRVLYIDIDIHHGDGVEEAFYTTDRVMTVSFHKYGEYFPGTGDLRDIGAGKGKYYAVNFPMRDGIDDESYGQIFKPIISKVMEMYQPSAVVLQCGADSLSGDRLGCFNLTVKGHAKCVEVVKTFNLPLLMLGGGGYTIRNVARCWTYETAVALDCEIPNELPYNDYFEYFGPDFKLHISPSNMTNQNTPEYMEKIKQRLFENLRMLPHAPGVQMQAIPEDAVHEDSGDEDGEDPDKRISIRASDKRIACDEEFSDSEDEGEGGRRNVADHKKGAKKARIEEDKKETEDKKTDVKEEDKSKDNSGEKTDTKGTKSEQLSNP
HDAC3, sequence (O15379 whole entry, species assumed): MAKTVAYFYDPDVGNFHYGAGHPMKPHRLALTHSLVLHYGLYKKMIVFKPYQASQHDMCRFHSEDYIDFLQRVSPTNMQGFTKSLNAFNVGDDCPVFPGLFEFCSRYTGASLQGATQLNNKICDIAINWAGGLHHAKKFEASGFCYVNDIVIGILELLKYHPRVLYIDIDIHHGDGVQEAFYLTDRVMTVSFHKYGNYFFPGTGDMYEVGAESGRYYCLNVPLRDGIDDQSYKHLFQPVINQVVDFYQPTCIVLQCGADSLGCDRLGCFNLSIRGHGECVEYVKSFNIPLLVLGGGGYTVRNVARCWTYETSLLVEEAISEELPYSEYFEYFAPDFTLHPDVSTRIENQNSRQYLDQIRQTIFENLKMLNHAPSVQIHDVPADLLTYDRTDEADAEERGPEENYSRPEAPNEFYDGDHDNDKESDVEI
HDAC3, sequence (Q9Y618 395-489 partner limits assumed, species assumed): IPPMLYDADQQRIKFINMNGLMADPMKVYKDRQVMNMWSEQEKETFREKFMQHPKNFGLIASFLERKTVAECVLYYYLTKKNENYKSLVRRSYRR
HDAC1, sequence (Q13547 whole entry, species assumed): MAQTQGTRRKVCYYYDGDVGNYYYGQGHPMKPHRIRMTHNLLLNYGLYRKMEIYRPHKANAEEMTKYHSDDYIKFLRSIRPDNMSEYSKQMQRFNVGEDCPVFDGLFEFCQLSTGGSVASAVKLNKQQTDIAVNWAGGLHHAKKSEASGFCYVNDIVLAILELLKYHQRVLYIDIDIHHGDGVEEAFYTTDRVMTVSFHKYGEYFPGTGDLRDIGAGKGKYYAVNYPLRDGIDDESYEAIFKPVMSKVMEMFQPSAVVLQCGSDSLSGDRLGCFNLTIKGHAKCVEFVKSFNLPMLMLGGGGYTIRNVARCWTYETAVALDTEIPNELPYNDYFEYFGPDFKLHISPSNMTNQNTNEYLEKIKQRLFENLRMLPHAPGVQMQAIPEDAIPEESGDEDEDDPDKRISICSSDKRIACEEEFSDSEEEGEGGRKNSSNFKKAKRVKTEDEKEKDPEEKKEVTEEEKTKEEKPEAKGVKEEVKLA
Protocol for HDAC1: (§1) The compounds of the present disclosure were assayed for enzyme inhibitory activity against various subtypes of HDAC enzymes by the FRET method. The various subtypes of HDAC enzymes were obtained either through purification or direct purchase of assay kits.
(§2) The specific method was as follows: The enzyme was added to a 384-well plate, and a reaction buffer was added to the control well. Serially diluted DMSO sample solutions were added to the reaction wells, and the plate was incubated at room temperature for 15 min. Then a chromogenic agent was added to stop the reaction, and fluorescence was generated. The fluorescence intensity was measured using an EnVision multi-label microplate reader (excitation: 355 nm, emission: 460 nm). The endpoint value was read after the color development reached stability. The inhibition IC50 of the compounds was calculated using GraphPad Prism4 software relative to DMSO.
Protocol for HDAC2: as §1, §2
Protocol for HDAC3: as §1, §2

Regarding `[2H]c1ccc(-c2ccc(N)c(NC(=O)c3ccc(N=S(C)(C)=O)cc3)c2)cc1` [Compound 12], the 50% inhibitory concentration (IC50) is below 500 nM on HDAC1 (Table 4), below 500 nM on HDAC2 (Table 4) and above 5000 nM on HDAC3 (Table 4).
Take `[2H]C([2H])([2H])N1CCS(=O)(=Nc2ccc(C(=O)Nc3cc(-c4cccs4)ccc3N)cc2)CC1` [Compound 90]: the IC50 at HDAC1 (Table 4) is below 500 nM; at HDAC2 (Table 4), below 500 nM; at HDAC3 (Table 4), above 5000 nM.
For `Nc1ccc(-c2ccc(F)cc2)cc1NC(=O)c1ccc(N=S2(=O)CCCCC2)cc1` [Compound 58], the figures for the half-inhibitory concentration (IC50) at HDAC1 (Table 5), at HDAC2 (Table 5) and on HDAC3 (Table 5) were below 30 nM, 30 to 300 nM and above 3000 nM, respectively.
For `CS(C)(=O)=Nc1ccc(C(=O)Nc2cc(-c3ccc(C#N)cc3)ccc2N)cc1` [Compound 4], the 50% inhibitory concentration (IC50) at HDAC1 (Table 4) was below 500 nM; on HDAC2 (Table 4), below 500 nM; at HDAC3 (Table 4), above 5000 nM.
In the case of `CS(C)(=O)=NC1CCC(C(=O)Nc2cc(-c3ccc(F)cc3)ccc2N)CC1` (stereo not drawn) [Compound 45], the values for the IC50 on HDAC1 (Table 4), on HDAC2 (Table 4) and on HDAC3 (Table 4) were below 500 nM, below 500 nM and above 5000 nM, respectively.
Regarding `CS(C)(=O)=Nc1ccc(C(=O)Nc2cc(-c3ccco3)ccc2N)cc1` [Compound 20], the half-inhibitory concentration (IC50) at HDAC1 (Table 4) was below 500 nM; on HDAC2 (Table 4), below 500 nM; on HDAC3 (Table 4) it was above 5000 nM.
Take `Nc1ccc(-c2ccc(F)cc2)cc1NC(=O)c1ccc(N=S2(=O)CCC2)cc1` [Compound 53]: the IC50 on HDAC1 (Table 5) is below 30 nM; on HDAC2 (Table 5), 30 to 300 nM; on HDAC3 (Table 5), above 3000 nM.
Turning to `CS(C)(=O)=Nc1ccc(C(=O)Nc2cc(-c3ncccn3)ccc2N)cc1` [Compound 18], the IC50 was below 500 nM at HDAC1 (Table 4), below 500 nM at HDAC2 (Table 4) and above 5000 nM on HDAC3 (Table 4).
On to `Nc1ccc(-c2ccc(F)s2)cc1NC(=O)c1ccc(N=S2(=O)CC3(CNC3)C2)cc1` [Compound 94], for which the IC50 at HDAC1 (Table 4) is below 500 nM; on HDAC2 (Table 4), below 500 nM; at HDAC3 (Table 4) it was above 5000 nM.
Regarding `CS(C)(=O)=Nc1ccc(C(=O)Nc2cc(-c3ccc(F)cc3F)ccc2N)cc1` [Compound 10], the IC50 at HDAC1 (Table 4) is below 500 nM; at HDAC2 (Table 4) it was below 500 nM; at HDAC3 (Table 4), above 5000 nM.
Take `CS(C)(=O)=Nc1ccc(C(=O)Nc2cc(-c3cccnc3)ccc2N)cc1` [Compound 15]: the half-maximal inhibitory concentration (IC50) was below 500 nM on HDAC1 (Table 4), below 500 nM at HDAC2 (Table 4) and above 5000 nM at HDAC3 (Table 4).
Consider `CS(C)(=O)=Nc1ccc(C(=O)Nc2cc(-c3cccs3)c(F)cc2N)cc1` [Compound 44], for which the figures for the half-maximal inhibitory concentration (IC50) on HDAC1 (Table 4), at HDAC2 (Table 4) and at HDAC3 (Table 4) were below 500 nM, below 500 nM and above 5000 nM, respectively.
Consider `CN1CC2(C1)CS(=O)(=Nc1ccc(C(=O)Nc3cc(-c4ccc(F)cc4)ccc3N)cc1)C2` [Compound 56], for which the 50% inhibitory concentration (IC50) on HDAC1 (Table 5) is below 30 nM; on HDAC2 (Table 5) it was 30 to 300 nM; on HDAC3 (Table 5) it was above 3000 nM.
The corresponding values for `Nc1ccc(-c2ccc(F)cc2)cc1NC(=O)c1ccc(N=S2(=O)CCC(F)(F)C2)cc1` (stereo not drawn) [Compound 65] are below 30 nM, 30 to 300 nM and above 3000 nM.
As to `COC(=O)c1ccc(-c2ccc(N)c(NC(=O)c3ccc(N=S(C)(C)=O)cc3)c2)cc1` [Compound 5], the figures for the IC50 on HDAC1 (Table 4), at HDAC2 (Table 4) and on HDAC3 (Table 4) were below 500 nM, 500 to 5000 nM and above 5000 nM, respectively.
Consider `CS(C)(=O)=Nc1ccc(C(=O)Nc2cc(-c3ccc(F)cc3)c(F)cc2N)cc1` [Compound 43], for which the IC50 on HDAC1 (Table 4) is below 500 nM; on HDAC2 (Table 4), below 500 nM; at HDAC3 (Table 4), above 5000 nM.
`CCS(=O)(CC)=Nc1ccc(C(=O)Nc2cc(-c3ccc(F)cc3)ccc2N)cc1` [Compound 59]: the figures for the IC50 at HDAC1 (Table 5), at HDAC2 (Table 5) and on HDAC3 (Table 5) were below 30 nM, 30 to 300 nM and above 3000 nM, respectively.
On to `CS(C)(=O)=Nc1ccc(C(=O)Nc2cc(-c3ccncc3)ccc2N)cc1` [Compound 13], for which the values for the 50% inhibitory concentration (IC50) at HDAC1 (Table 4), on HDAC2 (Table 4) and at HDAC3 (Table 4) were below 500 nM, below 500 nM and above 5000 nM, respectively.
For the compound `Nc1ccc(-c2ccc(F)cc2)cc1NC(=O)c1ccc(N=S2(=O)CC3(CCC3)C2)cc1` [Compound 54], the values for the concentration for half-maximal inhibition (IC50) at HDAC1 (Table 5), at HDAC2 (Table 5) and at HDAC3 (Table 5) were below 30 nM, 30 to 300 nM and above 3000 nM, respectively.
Turning to `CS(C)(=O)=Nc1ccc(C(=O)Nc2cc(-c3ccc(F)s3)ccc2O)cc1` [Compound 42], the IC50 was below 500 nM at HDAC1 (Table 4), below 500 nM at HDAC2 (Table 4) and above 5000 nM at HDAC3 (Table 4).
On to `[2H]C([2H])([2H])N1CCS(=O)(=Nc2ccc(C(=O)Nc3cc(-c4ccc(F)cc4)ccc3N)cc2)CC1` [Compound 68], for which the IC50 was below 500 nM on HDAC1 (Table 4); below 30 nM on HDAC1 (Table 5); below 500 nM on HDAC2 (Table 4); 30 to 300 nM at HDAC2 (Table 5); above 5000 nM on HDAC3 (Table 4); above 3000 nM on HDAC3 (Table 5).
As for `CN1CC2(CCS(=O)(=Nc3ccc(C(=O)Nc4cc(-c5cccs5)ccc4N)cc3)CC2)C1` [Compound 91], the IC50 was below 500 nM on HDAC1 (Table 4), below 500 nM at HDAC2 (Table 4) and above 5000 nM on HDAC3 (Table 4).
On to `Nc1ccc(-c2ccc(F)cc2)cc1NC(=O)c1ccc(N=S2(=O)CCC(F)(F)CC2)cc1` [Compound 63], for which the IC50 was below 30 nM on HDAC1 (Table 5), 30 to 300 nM at HDAC2 (Table 5) and above 3000 nM at HDAC3 (Table 5).
Consider `CS(C)(=O)=Nc1ccc(C(=O)Nc2cc(-c3ccccn3)ccc2N)cc1` [Compound 14], for which the IC50 on HDAC1 (Table 4) is below 500 nM; at HDAC2 (Table 4), below 500 nM; at HDAC3 (Table 4), above 5000 nM.
For `COc1ccc(-c2ccc(N)c(NC(=O)c3ccc(N=S(C)(C)=O)cc3)c2)cc1` [Compound 9], the IC50 at HDAC1 (Table 4) was below 500 nM; at HDAC2 (Table 4), below 500 nM; at HDAC3 (Table 4), above 5000 nM.
In the case of `Nc1ccc(-c2ccc(F)cc2)cc1NC(=O)c1ccc(N=S2(=O)CCN(CC3CC3)CC2)cc1` [Compound 71], the IC50 at HDAC1 (Table 4) was below 500 nM; on HDAC2 (Table 4), below 500 nM; on HDAC3 (Table 4), above 5000 nM.
Regarding `CS(C)(=O)=Nc1ccc(C(=O)Nc2cc(-c3ccc(C(F)(F)F)cc3)ccc2N)cc1` [Compound 7], the figures for the IC50 at HDAC1 (Table 4), at HDAC2 (Table 4) and at HDAC3 (Table 4) were below 500 nM, below 500 nM and above 5000 nM, respectively.
As to `CN1CC2(C1)CS(=O)(=Nc1ccc(C(=O)Nc3cc(-c4ccc(F)s4)ccc3N)cc1)C2` [Compound 95], the half-inhibitory concentration (IC50) was below 500 nM at HDAC1 (Table 4), below 500 nM at HDAC2 (Table 4) and above 5000 nM at HDAC3 (Table 4).
As to `CS(C)(=O)=Nc1ccc(C(=O)Nc2cc(-c3ccncn3)ccc2N)cc1` [Compound 16], the IC50 at HDAC1 (Table 4) was below 500 nM; on HDAC2 (Table 4) it was below 500 nM; on HDAC3 (Table 4), above 5000 nM.
`CS(C)(=O)=Nc1ccc(C(=O)Nc2cc(-c3ccc(F)cn3)ccc2N)cc1` [Compound 19]: the IC50 at HDAC1 (Table 4) was below 500 nM; on HDAC2 (Table 4), below 500 nM; at HDAC3 (Table 4), above 5000 nM.
Consider `CCN1CCS(=O)(=Nc2ccc(C(=O)Nc3cc(-c4ccc(F)cc4)ccc3N)cc2)CC1` [Compound 69], for which the IC50 on HDAC1 (Table 5) is below 30 nM; at HDAC2 (Table 5) it was 30 to 300 nM; on HDAC3 (Table 5), above 3000 nM.
For `Nc1ccc(-c2ccc(F)cc2)cc1NC(=O)c1ccc(N=S2(=O)CCOCC2)cc1` [Compound 60], in that order: below 30 nM, 30 to 300 nM and above 3000 nM.
Take `Nc1ccc(-c2ccc(F)cc2)cc1NC(=O)c1ccc(N=S2(=O)CC3(CNC3)C2)cc1` [Compound 55]: the IC50 was below 30 nM on HDAC1 (Table 5), 30 to 300 nM on HDAC2 (Table 5) and above 3000 nM on HDAC3 (Table 5).
Turning to `CS(C)(=O)=NC1CCC(C(=O)Nc2cc(-c3ccc(F)s3)ccc2N)CC1` (stereo not drawn) [Compound 47], the IC50 at HDAC1 (Table 4) was below 500 nM; at HDAC2 (Table 4), below 500 nM; on HDAC3 (Table 4), above 5000 nM.
In the case of `Nc1ccc(-c2ccc(F)s2)cc1NC(=O)c1ccc(N=S2(=O)CCC2)cc1` [Compound 92], the IC50 at HDAC1 (Table 4) is below 500 nM; at HDAC2 (Table 4) it was below 500 nM; at HDAC3 (Table 4), above 5000 nM.
With `CN1CC2(C1)CS(=O)(=Nc1ccc(C(=O)Nc3cc(-c4cccs4)ccc3N)cc1)C2` [Compound 79], the half-inhibitory concentration (IC50) is below 500 nM on HDAC1 (Table 4), below 500 nM at HDAC2 (Table 4) and above 5000 nM at HDAC3 (Table 4).
On to `CNC(=O)c1ccc(-c2ccc(N)c(NC(=O)c3ccc(N=S(C)(C)=O)cc3)c2)cc1` [Compound 11], for which the values for the IC50 at HDAC1 (Table 4), at HDAC2 (Table 4) and on HDAC3 (Table 4) were below 500 nM, below 500 nM and above 5000 nM, respectively.
In the case of `CN1CCS(=O)(=Nc2ccc(C(=O)Nc3cc(-c4cccs4)ccc3N)cc2)CC1` [Compound 89], the IC50 at HDAC1 (Table 4) is below 500 nM; on HDAC2 (Table 4), below 500 nM; at HDAC3 (Table 4) it was above 5000 nM.
`CS(C)(=O)=Nc1ccc(C(=O)Nc2cc(-c3cncnc3)ccc2N)cc1` [Compound 17]: the IC50 is below 500 nM at HDAC1 (Table 4), below 500 nM on HDAC2 (Table 4) and above 5000 nM at HDAC3 (Table 4).
Regarding `CS(C)(=O)=NC1CCC(C(=O)Nc2cc(-c3ccc(Cl)s3)ccc2N)CC1` (stereo not drawn) [Compound 48], the concentration for half-maximal inhibition (IC50) on HDAC1 (Table 4) was below 500 nM; on HDAC2 (Table 4), below 500 nM; at HDAC3 (Table 4) it was above 5000 nM.
As for `CS(C)(=O)=Nc1ccc(C(=O)Nc2cc(-c3ccc(F)cc3)ccc2O)cc1` [Compound 41], the IC50 is below 500 nM at HDAC1 (Table 4), 500 to 5000 nM on HDAC2 (Table 4) and above 5000 nM at HDAC3 (Table 4).
On to `CS(C)(=O)=Nc1ccc(C(=O)Nc2cc(-c3ccc(C4CC4)cc3)ccc2N)cc1` [Compound 8], for which the IC50 at HDAC1 (Table 4) is 500 to 5000 nM; on HDAC2 (Table 4), 500 to 5000 nM; on HDAC3 (Table 4), above 5000 nM.
On to `Nc1ccc(-c2cccs2)cc1NC(=O)c1ccc(N=S2(=O)CCCC2)cc1` [Compound 80], for which the results for the IC50 at HDAC1 (Table 4), on HDAC2 (Table 4) and at HDAC3 (Table 4) were below 500 nM, below 500 nM and above 5000 nM, respectively.
Turning to `Nc1ccc(-c2ccc(F)s2)cc1NC(=O)c1ccc(N=S2(=O)CC3(CCC3)C2)cc1` [Compound 93], the results for the half-inhibitory concentration (IC50) on HDAC1 (Table 4), at HDAC2 (Table 4) and on HDAC3 (Table 4) were below 500 nM, below 500 nM and above 5000 nM, respectively.
Consider `Nc1ccc(-c2ccc(F)s2)cc1NC(=O)c1ccc(N=S2(=O)CCCC2)cc1` [Compound 96], for which the results for the IC50 on HDAC1 (Table 4), at HDAC2 (Table 4) and on HDAC3 (Table 4) were below 500 nM, below 500 nM and above 5000 nM, respectively.
